The source of these data is ChEMBL document CHEMBL1201862, “PubChem BioAssay data set” (2004).

Test systems include SNB-19; KM12; RPMI-8226; SK-OV-3; SF-295; MOLT-4; SF-268; NCI-H226; CCRF-CEM; OVCAR-5; HL-60; UO-31; HOP-62; K562; HCC 2998; COLO 205; HCT-15; UACC-257; A549; HCT-116.
Test in all cases: growth of human tumour cells (NCI), 48 h

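A five-concentration, 48-hour dose response in 96-well plates underlies each endpoint, interpolated linearly between surrounding concentrations. GI50 = concentration required for 50% inhibition of growth.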 The source made the active and inactive calls. Cut-off read from the data, not from the text of the source: active = GI50 up to about 1.1 µM and inactive = higher. A value given as a limit tells only on which side of the number the result lay.

On to `Cc1ccc(/N=N/C(=N\NC(=O)c2ccc(C)cc2)c2ccc(N(CCC#N)CCC#N)cc2C)cc1`, for which the GI50 is > 100 µM (inactive) in the test on SNB-19; 12.2 µM (inactive) in the test on KM12; 13 µM (inactive) with RPMI-8226; 65.6 µM (inactive) in the test with SK-OV-3; 38.4 µM (inactive) in the test with SF-295; 39.4 µM (inactive) in the test with MOLT-4. Further, the GI50 was 22.5 µM (inactive) in the test on SF-268; 20.7 µM (inactive) with NCI-H226; 49.4 µM (inactive) in the test on CCRF-CEM; 50.5 µM (inactive) with OVCAR-5; 17.4 µM (inactive) in the test on HL-60; > 100 µM (inactive) with UO-31. The GI50 is 34.4 µM (inactive) in the test on HOP-62; 35.9 µM (inactive) with K562; 50.2 µM (inactive) with HCC 2998; 48.2 µM (inactive) with COLO 205; 33.5 µM in the test with HCT-15; 27.9 µM (inactive) in the test with UACC-257. In addition, the GI50 in the test with A549 is 34.5 µM (inactive).
For the molecule `C=CC(C)C1(CCCOCc2ccccc2)C(=S)N2CCC3(CC24CCCC14)OCCO3` (centres undefined), the GI50 is 24.5 µM (inactive) with SNB-19; 12.9 µM (inactive) in the test with KM12; 2.72 µM (inactive) in the test with RPMI-8226; > 100 µM (inactive) in the test on SK-OV-3; 53.2 µM (inactive) in the test on SF-295; 3.93 µM (inactive) in the test on MOLT-4. For the same molecule, the GI50 in the test with SF-268 was 5.93 µM (inactive); with NCI-H226, 36.6 µM (inactive); in the test with CCRF-CEM, 6.41 µM (inactive); in the test on OVCAR-5, > 100 µM (inactive); with HL-60, 1.9 µM (inactive); in the test with UO-31, 28.8 µM (inactive). For the same molecule, the GI50 was 4.84 µM (inactive) in the test on K562; 56.1 µM (inactive) in the test on HCC 2998; 28.5 µM (inactive) in the test with COLO 205; over 100 µM in the test on HCT-15; 9.68 µM (inactive) in the test on UACC-257; 16 µM (inactive) in the test with A549.
Take `CCO[C@]12C[C@H](OC)[C@@]3(O)CC(C1[C@H]3O)C13C4C2[C@H](OC)C1[C@](COC)(CN4CC)[C@H](O)C[C@@H]3OC` (some centres undefined): the GI50 in the test with HCT-116, in the test on SNB-19, in the test with RPMI-8226, in the test on SK-OV-3, with MOLT-4 and in the test with SF-268 was > 100 µM (inactive) in each case. The GI50 in the test on NCI-H226, in the test on CCRF-CEM, in the test with OVCAR-5, in the test on HL-60, in the test on UO-31 and in the test on HOP-62 was > 100 µM (inactive) throughout. Also, the GI50 in the test on K562 is > 100 µM (inactive); in the test on HCC 2998, > 100 µM (inactive); in the test on COLO 205, > 100 µM (inactive); in the test with HCT-15, over 100 µM; in the test with UACC-257 it was > 100 µM (inactive); in the test on A549, > 100 µM (inactive).
With `CC(C)=CC1(C)/C(=N\O)C(C)(CC(C)C)C(=O)N1O` (centres undefined), the GI50 in the test with HCT-116, with SNB-19, in the test with KM12, in the test on RPMI-8226, in the test with SK-OV-3 and in the test on SF-295 was > 100 µM (inactive) each time. In addition, the GI50 in the test on MOLT-4, in the test on NCI-H226, in the test on CCRF-CEM, in the test on OVCAR-5, in the test with HL-60 and with UO-31 was > 100 µM (inactive) in each case. In addition, the GI50 with HOP-62 was > 100 µM (inactive); with K562, > 100 µM (inactive); with HCC 2998 it was > 100 µM (inactive); in the test on COLO 205, > 100 µM (inactive); in the test with HCT-15 it was over 100 µM; with UACC-257, > 100 µM (inactive). The GI50 with A549 is > 100 µM (inactive).
